Measured values reported in patent publication US6414158B1, “1,3,4-oxadiazine derivatives and their use as pesticides” (Bayer AKtiengesellschaft, priority 1996, dated 2002).

melting point: 125 to 128 °C
Structure (SMILES): CCN1C(=O)OCC(=O)N1Cc1ccc(Cl)nc1 [Example I-16, 4-(2-chloro-5-pyridylmethyl)-3-ethyl-1,3,4-oxadiazine-2,5-dione]
